Here are results for three molecules from US10370378B2, “Treatment of sleep disorders” (Evotec International GmbH, priority 2007, dated 2019).

Values joined by “and” are separate entries in the source; they are usually repeats but may differ in a detail not shown here. Equal values may be shown once.

By half-life is commonly meant the time in which the quantity being followed falls by half.

For one series, the target named is T1, α1β2γ2 GABAA receptors (Rattus norvegicus, UniProt P18508+P62813).
T1 construct: expressed in transfected cells; host or cells: Xenopus laevis oocytes, cRNA microinjection
T1 sequence (P62813 28-455): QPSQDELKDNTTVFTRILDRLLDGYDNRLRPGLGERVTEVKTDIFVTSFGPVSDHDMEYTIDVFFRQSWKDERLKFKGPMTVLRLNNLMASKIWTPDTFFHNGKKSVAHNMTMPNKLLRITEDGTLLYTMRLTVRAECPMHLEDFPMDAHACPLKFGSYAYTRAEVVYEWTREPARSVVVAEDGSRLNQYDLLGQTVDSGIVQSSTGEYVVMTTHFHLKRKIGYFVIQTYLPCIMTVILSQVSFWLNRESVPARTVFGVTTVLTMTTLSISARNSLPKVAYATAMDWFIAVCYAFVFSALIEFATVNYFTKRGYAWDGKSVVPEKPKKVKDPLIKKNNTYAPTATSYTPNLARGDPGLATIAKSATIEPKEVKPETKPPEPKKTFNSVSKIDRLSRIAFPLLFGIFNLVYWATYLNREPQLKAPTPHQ
T1 sequence (P63138 25-474 partner limits assumed): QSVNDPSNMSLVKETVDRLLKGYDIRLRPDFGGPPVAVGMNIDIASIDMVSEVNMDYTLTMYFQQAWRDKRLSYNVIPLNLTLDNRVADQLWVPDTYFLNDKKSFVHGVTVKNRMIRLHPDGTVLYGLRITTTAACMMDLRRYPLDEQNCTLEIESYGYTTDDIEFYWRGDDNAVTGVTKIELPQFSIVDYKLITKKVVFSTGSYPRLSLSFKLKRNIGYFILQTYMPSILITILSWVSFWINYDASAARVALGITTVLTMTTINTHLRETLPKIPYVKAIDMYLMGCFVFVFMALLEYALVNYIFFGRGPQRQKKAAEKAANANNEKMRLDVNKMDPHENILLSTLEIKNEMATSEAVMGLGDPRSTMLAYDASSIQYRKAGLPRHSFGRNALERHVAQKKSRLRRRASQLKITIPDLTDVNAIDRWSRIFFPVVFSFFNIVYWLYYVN
T1 sequence (P18508 39-466): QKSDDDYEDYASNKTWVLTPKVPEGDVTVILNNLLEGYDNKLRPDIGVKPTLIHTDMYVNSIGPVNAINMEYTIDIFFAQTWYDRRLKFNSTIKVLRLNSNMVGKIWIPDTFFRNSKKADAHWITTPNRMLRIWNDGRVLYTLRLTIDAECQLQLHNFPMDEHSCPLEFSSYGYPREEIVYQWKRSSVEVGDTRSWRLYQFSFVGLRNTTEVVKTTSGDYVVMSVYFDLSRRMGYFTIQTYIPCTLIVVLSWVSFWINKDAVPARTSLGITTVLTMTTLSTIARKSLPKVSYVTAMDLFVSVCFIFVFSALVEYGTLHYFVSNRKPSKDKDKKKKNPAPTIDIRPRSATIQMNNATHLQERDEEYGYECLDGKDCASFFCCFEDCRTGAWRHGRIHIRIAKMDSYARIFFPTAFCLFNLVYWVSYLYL
The series can be described thus: Stimulation of currents elicited by GABA (EC3-5), two-electrode voltage clamp, receptors expressed in Xenopus oocytes. Format: cell-based. An excerpt:
(§1) 7-Chloro-3-(5-dimethylaminomethyl-[1,2,4]oxadiazol-3-yl)-5-methyl-4,5-dihydro-imidazol[1,5,-a][1,4]benzodiazepine-6-one was used to test the effects of the compound of formula (II): […]
(§2) Similar procedures were chosen as for the investigation of other GABAA receptor subunit specific substances (e.g., Baur et al., 2005; Mol. Pharmacol. 68, 787-792).
(§3) Lobes of the ovary containing the follicles were obtained by surgical procedures from female Xenopus laevis. Follicles were singled out using a platinum loop. Fifty nL of cRNA solution at a ratio of αx:β2:γ2 of 1:1:5 (3.3-10 nM αx (x=1, 2, 3, 5); 3.3-10 nM β2; 16.7-50 nM γ2) (Boileau et al., 2002; Neuropharmacology 43, 695-700) were microinjected into Xenopus follicles. Several hours after microinjection the follicles were freed of follicular layers and adhering connective tissue by a collagenase/hypertonic shock procedure (Sigel, 1987; J. Physiol. (Land) 386, 73-90). Oocytes were kept at constant 18° C. until measurement (1-4 days) in a modified Barth solution (88 mM NaCl, 1 mM KCl, 2.4 mM NaHCO3, 10 mM Hepes-NaOH (pH 7.5), 0.82 mM MgSO4×7H2O, 0.34 mM Ca(NO3)2×4H2O, 0.41 mM CaCl2×2H2O, 100 U Penicillin/mL, 100 μg Streptomycin/mL, sterile filtered).
Currents were measured using a home-built amplifier in combination with a xy-recorder or were digitized using a MacLab/200 (AD Instruments) and stored on a computer. Xenopus oocytes were voltage clamped using the two-electrode voltage clamp technique (electrode resistance about 0.8 MΩ) at −80 mV. The medium contained 90 mM NaCl, 1 mM KCl, 1 mM MgCl2, 1 mM CaCl2, 10 mM Na-Hepes (pH 7.4) and 0.5% DMSO.
GABA was applied for 20-50 seconds without or in combination with other drugs and a washout period of 4 minutes was allowed to ensure full recovery from desensitization, which was experimentally determined. The perfusion solution (6 mL/min) was applied through a glass capillary with an inner diameter of 1.35 mm, the mouth of which was placed about 0.4 mm from the surface of the oocyte. The rate of solution change under our conditions has been estimated 70% within less than 0.5 s (Sigel et al., 1990; Neuron 5, 703-711). The entire perfusion system and the assay chamber were cleaned between drug applications by washing with DMSO.
Data is given as mean±SD, except in the figures where data is shown for clarity as mean±SEM. Current stimulation was calculated as follows: stimulation (%)=((I(GABA+modulator)−I(GABA))/I(GABA))×100%, where I is the current amplitude. Where indicated, the stimulation was standardized to the stimulation by 1 μM diazepam (100%). To obtain FIGS. 1-4, values for current stimulation obtained at a given concentration of modulator at a given subunit combination were averaged. The data points were fitted with the equation stimulation=efficacy/(1+(potency/concentration of modulator)). The values given in the Tables (Summary) are obtained by fitting individual curves and subsequently averaging efficacy and potency. […]
GABA was then applied in combination with various concentrations of the compound of formula (II) between 0.3 nM and 3,000 nM to produce a cumulative concentration response curve. […] In each batch of oocytes the stimulation by 1 μM diazepam was determined in five oocytes, extent of stimulation averaged and defined as 100%. Where indicated, stimulation by the compound of formula (II) in each batch of oocytes was expressed as a percentage of this value in the corresponding batch. […]

Another series has as its target T2, α5β2γ2 GABAA receptors (Rattus norvegicus, UniProt P18508+P19969).
T2 construct: expressed in transfected cells; host or cells: Xenopus laevis oocytes, cRNA microinjection
Described as above. It counts as cell-based. Particulars: 1 μM; different batches of oocytes, n=5 each.
Source text: as §1, §2, §3
(§4) Currents were measured using a home-built amplifier in combination with a xy-recorder or were digitized using a MacLab/200 (AD Instruments) and stored on a computer. Xenopus oocytes were voltage clamped using the two-electrode voltage clamp technique (electrode resistance about 0.8 MΩ) at −80 mV. […]
(§5) GABA was applied for 20-50 seconds without or in combination with other drugs and a washout period of 4 minutes was allowed to ensure full recovery from desensitization, which was experimentally determined. […]
(§6) Data is given as mean±SD, except in the figures where data is shown for clarity as mean±SEM. Current stimulation was calculated as follows: stimulation (%)=((I(GABA+modulator)−I(GABA))/I(GABA))×100%, where I is the current amplitude. […]
(§7) Current stimulation by diazepam was determined in each batch of oocytes as follows. […]

In the next series the target is T3, α2β2γ2 GABAA receptors (Rattus norvegicus, UniProt P18508+P23576).
T3 construct: expressed in transfected cells; host or cells: Xenopus laevis oocytes, cRNA microinjection
T3 sequence (P23576 29-451): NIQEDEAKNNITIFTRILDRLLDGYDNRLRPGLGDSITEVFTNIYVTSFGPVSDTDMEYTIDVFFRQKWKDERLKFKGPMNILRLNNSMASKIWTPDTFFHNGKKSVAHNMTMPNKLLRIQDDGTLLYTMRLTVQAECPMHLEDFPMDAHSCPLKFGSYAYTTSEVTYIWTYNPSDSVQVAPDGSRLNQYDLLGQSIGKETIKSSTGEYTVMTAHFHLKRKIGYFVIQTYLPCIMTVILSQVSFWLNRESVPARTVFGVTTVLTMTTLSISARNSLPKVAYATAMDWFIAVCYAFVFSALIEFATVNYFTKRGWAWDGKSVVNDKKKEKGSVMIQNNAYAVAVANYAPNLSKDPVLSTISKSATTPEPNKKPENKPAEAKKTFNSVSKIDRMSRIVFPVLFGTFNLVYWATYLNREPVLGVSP
T3 sequence (P63138 25-474 partner limits assumed): as the sequence (P63138 25-474 partner limits assumed) above
T3 sequence (P18508 39-466): as the sequence (P18508 39-466) above
The series is described as above. Format: cell-based. Particulars: 1 μM; different batches of oocytes, n=5 each.
Source text: as §1, §2, §3, §4, §5, §6, §7

In a further series the target is T4, α3β2γ2 GABAA receptors (Rattus norvegicus, UniProt P18508+P20236).
T4 construct: expressed in transfected cells; host or cells: Xenopus laevis oocytes, cRNA microinjection
T4 sequence (P20236 29-493): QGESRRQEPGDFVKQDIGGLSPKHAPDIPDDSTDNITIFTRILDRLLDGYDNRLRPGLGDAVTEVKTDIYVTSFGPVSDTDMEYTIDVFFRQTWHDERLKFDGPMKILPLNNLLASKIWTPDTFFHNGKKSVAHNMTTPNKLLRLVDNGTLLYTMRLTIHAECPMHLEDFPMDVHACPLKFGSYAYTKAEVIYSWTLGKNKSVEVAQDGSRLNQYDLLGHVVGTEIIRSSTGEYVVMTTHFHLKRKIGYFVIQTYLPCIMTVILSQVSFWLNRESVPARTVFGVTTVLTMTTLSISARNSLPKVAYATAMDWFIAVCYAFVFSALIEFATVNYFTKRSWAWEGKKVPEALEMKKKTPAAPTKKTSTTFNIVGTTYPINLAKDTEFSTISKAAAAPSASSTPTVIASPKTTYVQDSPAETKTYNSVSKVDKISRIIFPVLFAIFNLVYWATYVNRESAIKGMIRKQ
T4 sequence (P63138 25-474 partner limits assumed): as the sequence (P63138 25-474 partner limits assumed) above
T4 sequence (P18508 39-466): as the sequence (P18508 39-466) above
Described as above. The conditions noted are these: 1 μM; different batches of oocytes, n=5 each. Format: cell-based.
Source text: as §1, §2, §3, §4, §5, §6, §7

For series [1] the following is noted: elderly; cited from earlier work.
A further series has as its system GABAA receptors. The conditions noted are these: 20 mg, PET, in man; cited from earlier work.

T2 sequence (P19969 32-464 limits assumed): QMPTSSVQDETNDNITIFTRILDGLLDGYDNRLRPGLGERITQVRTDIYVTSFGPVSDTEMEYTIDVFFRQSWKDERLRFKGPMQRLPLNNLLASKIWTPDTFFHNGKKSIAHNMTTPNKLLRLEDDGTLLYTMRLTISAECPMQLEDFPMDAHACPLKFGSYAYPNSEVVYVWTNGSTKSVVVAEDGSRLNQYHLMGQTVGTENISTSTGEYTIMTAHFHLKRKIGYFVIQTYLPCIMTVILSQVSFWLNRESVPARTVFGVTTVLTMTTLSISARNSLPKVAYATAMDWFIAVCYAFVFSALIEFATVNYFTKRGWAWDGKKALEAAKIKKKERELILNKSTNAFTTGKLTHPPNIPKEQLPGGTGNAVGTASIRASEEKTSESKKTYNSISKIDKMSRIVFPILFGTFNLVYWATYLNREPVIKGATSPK
T2 sequence (P63138 25-474 partner limits assumed): as the sequence (P63138 25-474 partner limits assumed) above
T2 sequence (P18508 39-466): as the sequence (P18508 39-466) above

For the molecule `CN1C(=O)CN=C(c2ccccc2)c2cc(Cl)ccc21` [diazepam], the Current stimulation at α1β2γ2 GABAA receptors (1 μM, different batches of oocytes, n=5 each) was 223±28% and 178±20%; on α5β2γ2 GABAA receptors it was 237±97% and 160±4%; at α2β2γ2 GABAA receptors, 264±61% and 280±71% and 318±62%; on α3β2γ2 GABAA receptors, 417±85% and 417±144%.

In the case of `CN1CCN(C(=O)O[C@H]2c3nccnc3C(=O)N2c2ccc(Cl)cn2)CC1` [eszopiclone], the half-life in series [1] is 9 h.

Regarding `Cc1ccc(-c2nc3ccc(C)cn3c2CC(=O)N(C)C)cc1` [zolpidem], the receptor occupancy result with GABAA receptors was “about 20%”. The “Receptor subtype affinity in comparison to α2β2γ2, α3β2γ2 and α5β2γ2” value at α1β2γ2 GABAA receptors is on record as “higher affinity at α1β2γ2 GABAA receptors”. For the same molecule, the “Intrinsic activity / type of allosteric modulation” value at α1β2γ2 GABAA receptors (GABAA receptor benzodiazepine site) was “full agonist”.
